According to ChEMBL document CHEMBL5385915 (J Med Chem, 2024):
Active and inactive are the calls of the source. The calls are words filed in the database; no cut-off is given here.

Columns and labels:
[1] = tested on: Mycobacterium tuberculosis variant bovis; test: Downregulation of hadA gene expression in Mycobacterium bovis BCG at 1 times MIC incubated for 8 hrs by RNA-sequencing analysis; format: functional
[2] = tested on: Mycobacterium tuberculosis variant bovis; test: Downregulation of fabG1 gene expression in Mycobacterium bovis BCG at 1 times MIC incubated for 8 hrs by RNA-sequencing analysis; format: functional
[3] = tested on: Mycobacterium tuberculosis variant bovis; test: Downregulation of inhA gene expression in Mycobacterium bovis BCG at 1 times MIC incubated for 8 hrs by RNA-sequencing analysis; format: functional
[4] = tested on: Mycobacterium tuberculosis variant bovis; test: Downregulation of acpM gene expression in Mycobacterium bovis BCG at 1 times MIC incubated for 8 hrs by RNA-sequencing analysis; format: functional
[5] = tested on: Mycobacterium tuberculosis variant bovis; test: Downregulation of mmaA2 gene expression in Mycobacterium bovis BCG at 1 times MIC incubated for 8 hrs by RNA-sequencing analysis; format: functional
[6] = tested on: Mycobacterium tuberculosis variant bovis; test: Downregulation of mmaA3 gene expression in Mycobacterium bovis BCG at 1 times MIC incubated for 8 hrs by RNA-sequencing analysis; format: functional
[7] = tested on: Mycobacterium tuberculosis variant bovis; test: Downregulation of fbpA gene expression in Mycobacterium bovis BCG at 1 times MIC incubated for 8 hrs by RNA-sequencing analysis; format: functional
[8] = tested on: Mycobacterium tuberculosis variant bovis; test: Downregulation of fbpD gene expression in Mycobacterium bovis BCG at 1 times MIC incubated for 8 hrs by RNA-sequencing analysis; format: functional
[9] = tested on: Mycobacterium tuberculosis variant bovis; test: Downregulation of desA2 gene expression in Mycobacterium bovis BCG at 1 times MIC incubated for 8 hrs by RNA-sequencing analysis; format: functional
[10] = tested on: Mycobacterium tuberculosis variant bovis; test: Upregulation of cmtR gene expression in Mycobacterium bovis BCG at 1 times MIC incubated for 8 hrs by RNA-sequencing analysis; format: functional
[11] = tested on: Mycobacterium tuberculosis variant bovis; test: Upregulation of zur gene expression in Mycobacterium bovis BCG at 1 times MIC incubated for 8 hrs by RNA-sequencing analysis; format: functional
[12] = tested on: Mycobacterium tuberculosis variant bovis; test: Upregulation of ideR gene expression in Mycobacterium bovis BCG at 1 times MIC incubated for 8 hrs by RNA-sequencing analysis; format: functional
[13] = tested on: Mycobacterium tuberculosis variant bovis; test: Upregulation of tcrYX gene expression in Mycobacterium bovis BCG at 1 times MIC incubated for 8 hrs by RNA-sequencing analysis; format: functional
[14] = tested on: Mycobacterium tuberculosis variant bovis; test: Upregulation of mbtB gene expression in Mycobacterium bovis BCG at 1 times MIC incubated for 8 hrs by RNA-sequencing analysis; format: functional
[15] = tested on: Mycobacterium tuberculosis variant bovis; test: Upregulation of mbtC gene expression in Mycobacterium bovis BCG at 1 times MIC incubated for 8 hrs by RNA-sequencing analysis; format: functional
[16] = tested on: Mycobacterium tuberculosis variant bovis; test: Upregulation of mbtD gene expression in Mycobacterium bovis BCG at 1 times MIC incubated for 8 hrs by RNA-sequencing analysis; format: functional
[17] = tested on: Mycobacterium tuberculosis variant bovis; test: Effect on nuoA-N gene expression in Mycobacterium bovis BCG at 1 times MIC incubated for 8 hrs by RNA-sequencing analysis; format: functional
[18] = tested on: Mycobacterium tuberculosis variant bovis; test: Effect on qcrA-C gene expression in Mycobacterium bovis BCG at 1 times MIC incubated for 8 hrs by RNA-sequencing analysis; format: functional
[19] = tested on: Mycobacterium tuberculosis variant bovis; test: Effect on ctaC-E gene expression in Mycobacterium bovis BCG at 1 times MIC incubated for 8 hrs by RNA-sequencing analysis; format: functional
[20] = tested on: Mycobacterium tuberculosis variant bovis; test: Effect on cydA-D gene expression in Mycobacterium bovis BCG at 1 times MIC incubated for 8 hrs by RNA-sequencing analysis; format: functional
[21] = tested on: Mycobacterium tuberculosis variant bovis; test: Effect on narG-J gene expression in Mycobacterium bovis BCG at 1 times MIC incubated for 8 hrs by RNA-sequencing analysis; format: functional
[22] = tested on: Mycobacterium tuberculosis variant bovis; test: Upregulation of mmpL5 gene expression in Mycobacterium bovis BCG at 1 times MIC incubated for 8 hrs by RNA-sequencing analysis; format: functional
[23] = tested on: Mycobacterium tuberculosis variant bovis; test: Upregulation of mmpS5 gene expression in Mycobacterium bovis BCG at 1 times MIC incubated for 8 hrs by RNA-sequencing analysis; format: functional
[24] = tested on: Mycobacterium tuberculosis variant bovis BCG; test: Inhibition of cell wall biosynthesis in Mycobacterium bovis BCG assessed as reduction in trehalose monomycolate accumulation at 0.5 times MIC incubated for 12 hrs in presence of [14C]acetate by TLC based autoradiography analysis; format: functional, organism-based
[25] = tested on: Mycobacterium tuberculosis variant bovis BCG; test: Inhibition of cell wall biosynthesis in Mycobacterium bovis BCG assessed as reduction in trehalose dimycolate accumulation at 0.5 times MIC incubated for 12 hrs in presence of [14C]acetate by TLC based autoradiography analysis; format: functional, organism-based
[26] = tested on: Mycobacterium tuberculosis variant bovis BCG; test: Inhibition of cell wall biosynthesis in Mycobacterium bovis BCG assessed as formation of cytoplasmic membrane phospholipids at 0.5 times MIC incubated for 12 hrs in presence of [14C]acetate by TLC based autoradiography analysis; format: functional, organism-based
[27] = tested on: Mycobacterium tuberculosis variant bovis BCG; test: Inhibition of mycolic acid biosynthesis in Mycobacterium bovis BCG assessed as decrease in alpha mycolic acid transfer onto cell wall arabinogalactan at 0.5 times MIC incubated for 12 hrs in presence of [14C]acetate by TLC based autoradiography analysis; format: functional, organism-based
[28] = tested on: Mycobacterium tuberculosis variant bovis BCG; test: Inhibition of mycolic acid biosynthesis in Mycobacterium bovis BCG assessed as decrease in keto mycolic acid transfer onto cell wall arabinogalactan at 0.5 times MIC incubated for 12 hrs in presence of [14C]acetate by TLC based autoradiography analysis; format: functional, organism-based
[29] = tested on: Mycobacterium tuberculosis variant bovis BCG; test: Inhibition of late-stage mycolic acid biosynthesis in Mycobacterium bovis BCG at 5 times MIC incubated for 6 hrs by TLC based autoradiography analysis; format: functional, organism-based

CNC[C@@H]1C[C@H](c2ccc(OC(F)(F)F)cc2)N1Cc1ccccc1OC(F)(F)F (racemic)
Activity [1]: Active
Activity [2]: Active
Activity [3]: Active
Activity [4]: Active
Activity [5]: Active
Activity [6]: Active
Activity [7]: Active
Activity [8]: Active
Activity [9]: Active
Activity [10]: Active
Activity [11]: Active
Activity [12]: Active
Activity [13]: Active
Activity [14]: Active
Activity [15]: Active
Activity [16]: Active
Activity [17]: Active
Activity [18]: Active
Activity [19]: Active
Activity [20]: Active
Activity [21]: Active
Activity [22]: Active
Activity [23]: Active
inhibition [24]: Active
inhibition [25]: Active
inhibition [26]: inactive
inhibition [27]: Active
inhibition [28]: Active
inhibition [29]: Active

Brc1cc(Br)cc([C@H]2C[C@@H](CN3CCCC3)N2Cc2ccccc2Br)c1 (racemic)
inhibition [29]: Active
